The record followed here is patent US20240042019A1, “OPTIMIZED TLR7 LIGANDS AND USES THEREOF” (Genentech, Inc., priority 2021, published 2024).

Like-named read-outs stand apart in the source and are kept apart here. Oligonucleotides are written 5' to 3', each unit as a sugar letter and its base; * is a phosphorothioate linkage, no mark a phosphodiester; rarer units and linkages stand in square brackets, end groups in braces. Plain capitals give the bases only. m = 2'-O-methyl; r = 2'-OH (RNA); f = 2'-fluoro

Common to all, as to type: cell-based
The target of series [1] is T1, TLR7 (Homo sapiens, UniProt Q9NYK1).
T1 construct: Peripheral blood mononuclear cells (PBMCs) were obtained from buffy coats from healthy adult donors; endogenous in cells; host or cells: primary human PBMCs from healthy donor buffy coats (TLR7 expressed by pDCs)
T1 sequence (Q9NYK1 27-1049): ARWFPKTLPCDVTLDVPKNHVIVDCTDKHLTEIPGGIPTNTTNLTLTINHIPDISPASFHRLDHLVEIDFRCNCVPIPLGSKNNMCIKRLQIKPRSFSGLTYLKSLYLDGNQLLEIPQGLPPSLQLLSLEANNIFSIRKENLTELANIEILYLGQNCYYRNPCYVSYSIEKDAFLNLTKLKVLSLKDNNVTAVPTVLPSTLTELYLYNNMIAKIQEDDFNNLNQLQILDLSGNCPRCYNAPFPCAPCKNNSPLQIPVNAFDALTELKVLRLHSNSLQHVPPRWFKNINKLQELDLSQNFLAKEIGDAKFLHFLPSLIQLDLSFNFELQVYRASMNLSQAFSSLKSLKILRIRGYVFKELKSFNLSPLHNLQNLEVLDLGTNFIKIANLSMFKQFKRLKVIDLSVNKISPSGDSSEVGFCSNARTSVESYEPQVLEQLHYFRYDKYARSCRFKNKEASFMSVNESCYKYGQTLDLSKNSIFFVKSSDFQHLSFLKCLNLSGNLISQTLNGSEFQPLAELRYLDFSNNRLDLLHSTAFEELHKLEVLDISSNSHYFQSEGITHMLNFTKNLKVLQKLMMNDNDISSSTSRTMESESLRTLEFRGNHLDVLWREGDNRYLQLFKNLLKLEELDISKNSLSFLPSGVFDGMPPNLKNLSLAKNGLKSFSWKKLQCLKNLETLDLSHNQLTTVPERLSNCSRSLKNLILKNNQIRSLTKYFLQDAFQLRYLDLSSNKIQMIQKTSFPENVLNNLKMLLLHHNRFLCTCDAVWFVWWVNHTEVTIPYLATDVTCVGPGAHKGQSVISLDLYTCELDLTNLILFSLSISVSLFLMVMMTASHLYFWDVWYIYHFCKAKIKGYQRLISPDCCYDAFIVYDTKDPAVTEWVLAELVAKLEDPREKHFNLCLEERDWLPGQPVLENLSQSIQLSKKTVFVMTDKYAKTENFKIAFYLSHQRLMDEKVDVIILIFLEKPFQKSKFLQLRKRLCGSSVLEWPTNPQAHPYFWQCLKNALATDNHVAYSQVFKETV
Nature of the series: PBMC stimulation with p-L-arginine-complexed RNA ligands, IFN-α ELISA. To be noted: human PBMCs; for IFN-α secretion (TLR7 activity): p-L-arginine delivery, 16 hours, ELISA (FIG. 7); for IFN-α secretion when co-delivered with 2′3′ cGMP: p-L-arginine complexes with 2′3′ cyclic GMP 5 μg/ml, ORN 0.6 μg/ml (FIG. 12). On the procedure:
(§1) Peripheral blood mononuclear cells (PBMCs) were obtained from buffy coats from healthy adult donors. Buffy coat samples were first diluted with an equal volume of phosphate-buffered saline (PBS). Next, PBMCs were isolated via density gradient centrifugation with Lymphoprep density gradient media ([…] Technologies) and SepMate-50 tubes ([…] Technologies). Samples were centrifuged at 1000 g for 15 minutes. After centrifugation, the upper layers were collected by pouring into a new tube, diluted with PBS, and centrifuged at 450×g for 5 minutes. To lyse red blood cells, cell pellets were resuspended with 10 mL Ammonium-Chloride-Potassium (ACK) Lysis Buffer and incubated for 8 minutes at room temperature. After lysis, cells were washed with PBS and passed through two 70 μm cell strainers. Viable cell counts were determined with a Vi-CELL cell counter (Beckman Coulter). […] Guanosine was added between about 20 and about 30 minutes before the addition of poly-[…])-complexed RNA. […] After mixing by pipetting up and down, the reaction was incubated for 10 minutes, pipetted up and down again, and then added to the cells. In some experiments, RNA ligands were used at a final concentration of 0.6 μg/ml. Where indicated as “+2'3' cGMP”, 2'3' cyclic GMP purchased from eMolecules was complexed together with the RNA ligands. The final concentration of 2'3' cyclic GMP was 5 μg/ml. p-L-arginine was adjusted accordingly to keep the mass ratio of nucleic acid:p-L-arginine constant. Cell culture supernatants were collected 15-18 hours after stimulation and stored at -80° C. Cytokines in cell culture supernatants were detected with the BD OptEIA human TNF ELISA Set (BD Biosciences), and either Invitrogen IFN alpha Human Matched Antibody Pair kit (Thermo Fisher Scientific) or Human IFN Alpha Multi-Subtype ELISA Kit (PBL Assay Science). To test the effects of the RNA ligands described in Example 1 on TLR7 and TLR8 activation, PBMCs were stimulated with the RNA ligands using p-L-arginine complex delivery, delivery with DOTAP, or delivery without a carrier. Activity of TLR7 and TLR8 was assessed based on measurements of IFN-α or TNF-α by enzyme-linked immunosorbent assays (ELISA). In this setting, as depicted in FIG. 6, IFN-α induced by small RNAs is derived from TLR7 expressed by pDCs, or from RIG-I expressed by monocytes. In contrast, TNF-α secretion is derived from monocytes and serves as an indication of TLR8 activation. As shown in this figure, the p-L-arginine delivery restricts most of the activation to TLRs. First, the effects of the RNA ligands on TLR7 and TLR8 activation using p-L-arginine complex delivery were tested.
In general terms: In an ELISA, binding on a coated surface is turned into a signal by an enzyme label.

For series [2], the target named is T1, TLR7. The experiment in a line: PBMC stimulation with DOTAP-complexed RNA ligands, IFN-α ELISA.
The target of series [3] is T2, TLR8 (Homo sapiens, UniProt Q9NR97).
T2 construct: Peripheral blood mononuclear cells (PBMCs) were obtained from buffy coats from healthy adult donors; endogenous in cells; host or cells: primary human PBMCs from healthy donor buffy coats (TLR8 in monocytes)
T2 sequence (Q9NR97 27-1041): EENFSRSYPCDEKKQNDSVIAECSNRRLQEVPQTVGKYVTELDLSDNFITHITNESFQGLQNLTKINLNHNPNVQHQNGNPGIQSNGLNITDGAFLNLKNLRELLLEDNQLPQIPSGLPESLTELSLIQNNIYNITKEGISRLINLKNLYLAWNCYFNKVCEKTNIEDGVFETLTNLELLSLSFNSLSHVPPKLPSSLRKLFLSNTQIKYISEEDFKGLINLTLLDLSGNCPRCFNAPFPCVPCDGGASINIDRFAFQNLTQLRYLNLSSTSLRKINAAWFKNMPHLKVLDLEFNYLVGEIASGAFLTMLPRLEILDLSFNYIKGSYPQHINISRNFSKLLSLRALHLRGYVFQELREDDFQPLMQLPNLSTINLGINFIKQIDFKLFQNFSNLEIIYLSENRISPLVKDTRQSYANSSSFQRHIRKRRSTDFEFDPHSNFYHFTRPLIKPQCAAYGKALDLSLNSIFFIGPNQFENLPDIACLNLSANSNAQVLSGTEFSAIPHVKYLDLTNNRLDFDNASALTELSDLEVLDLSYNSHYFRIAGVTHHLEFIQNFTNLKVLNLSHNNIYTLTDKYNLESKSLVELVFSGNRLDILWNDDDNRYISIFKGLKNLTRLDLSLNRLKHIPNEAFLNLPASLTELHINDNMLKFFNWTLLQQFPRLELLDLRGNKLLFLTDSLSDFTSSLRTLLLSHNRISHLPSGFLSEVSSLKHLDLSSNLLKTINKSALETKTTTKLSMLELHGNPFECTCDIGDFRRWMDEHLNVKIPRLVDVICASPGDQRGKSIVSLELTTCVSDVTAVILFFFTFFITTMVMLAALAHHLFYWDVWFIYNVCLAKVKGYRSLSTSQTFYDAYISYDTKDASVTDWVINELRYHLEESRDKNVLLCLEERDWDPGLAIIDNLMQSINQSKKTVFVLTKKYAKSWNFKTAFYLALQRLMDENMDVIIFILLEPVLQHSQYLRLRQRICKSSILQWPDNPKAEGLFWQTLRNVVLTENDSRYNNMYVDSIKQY
The experiment in a line: PBMC stimulation with DOTAP-complexed RNA ligands, TNF-α ELISA.

The target of series [4] is T2, TLR8. Nature of the series: PBMC stimulation with p-L-arginine-complexed RNA ligands, TNF-α ELISA. To be noted: human PBMCs, p-L-arginine complexes with 2′3′ cyclic GMP 5 μg/ml, ORN 0.6 μg/ml (FIG. 12). On the procedure: as §1
Setting [5] is: human PBMCs, DOTAP delivery, 0.6 μg/ml and 2 μg/ml, 16 hours (FIGS. 10A-10B).
Setting [6] is: human PBMCs, DOTAP delivery, 2 μg/ml (FIG. 10B).

“C*G*G*C*U*C*G*G*C*A*G*A*A*G*C*C*G*G*G*C*C (rC*rG*rG*rC*rU*rC*rG*rG*rC*rA*rG*rA*rA*rG*rC*rC*rG*rG*rG*rC*rC) [ORN7024]”: the “IFN-α secretion (TLR7 activity)” value in series [1] is recorded as “reduced activity”.

As for “C-A-G-A-C-C*U*U*C-C-A-G-A-C-C*U*U*C (CAGACCUUCCAGACCUUC; linkages o5 s3 o6 s3 (s phosphorothioate, o phosphodiester), sugars by position not given here) [ORN7004]”, the “IFN-α secretion (TLR7 activity)” value in series [2] is “mildly increased TLR7 activity”. For the same substance, the “TNF-α secretion (TLR8 activity)” value in series [3] is given as “markedly increased TLR8 activity”.

As to “C-A-G-A-C-C-U-U-C-C-A-G-A-C-C-U-U-C (CAGACCUUCCAGACCUUC; unmodified RNA) [ORN7001, de novo designed ligand]”, the “IFN-α secretion (TLR7 activity)” value is “no or only minor IFN-α secretion” in series [1]; “induced TLR7 and TLR8 activity” in series [2] (setting [5]). Further, the “TNF-α secretion (TLR8 activity)” value in series [3] (setting [5]) is “induced TLR7 and TLR8 activity”.

Regarding “C-C-G-A-G-C-C-G-C*U*U*U*U*C-C-C (rCrCrGrArGrCrCrGrC*rU*rU*rU*rU*rCrCrC) [ORN7022, phosphodiester-linked version of ORN7013]”, the “IFN-α secretion (TLR7 activity)” value in series [2] (setting [5]) was “activated both TLR7 and TLR8”. Moreover, the “TNF-α secretion (TLR8 activity)” value in series [3] (setting [5]) is “activated both TLR7 and TLR8”.

Regarding “C-C-G-A-G-C-C-G-C-fU-U*fU-U*C-C-C (rCrCrGrArGrCrCrGrCfUrU*fUrU*rCrCrC) [ORN7019, 2′-fluoro-modified and phosphodiester-linked version of ORN7013]”, the “IFN-α secretion (TLR7 activity)” value in series [2] (human PBMCs, DOTAP delivery, 0.6 μg/ml (FIG. 10A)) is “selective TLR7 activation”. Also, the “TNF-α secretion (TLR8 activity)” value in series [3] (setting [6]) was “also had TLR8-activity”.

Take “C-C-fU-U-C-fU-U-C-fU-U-C-fU-U-C-fU-U-C-fU-U-C (rCrCfUrUrCfUrUrCfUrUrCfUrUrCfUrUrCfUrUrC) [ORN7011, 2′-fluoro-modified version of ORN7009]”: the “IFN-α secretion when co-delivered with 2′3′ cGMP” value (from here on “IFN-α secretion when co-delivered”) in series [1] is reported as “robust IFN-a induction”. In series [4], the “TNF-α secretion when co-delivered with 2′3′ cyclic GMP” value (“TNF-α secretion when co-delivered” below) was “little to no measurable TNF-α”. Besides, the “IFN-α secretion (TLR7 activity)” value in series [2] (setting [6]) is listed as “had TLR7-activity”. Further, in series [3] (setting [6]), the “TNF-α secretion (TLR8 activity)” value is listed as “without TLR8 activity”.

For the substance “C-C-mU-U-C-mU-U-C-mU-U-C-mU-U-C-mU-U-C-mU-U-C (rCrCmUrUrCmUrUrCmUrUrCmUrUrCmUrUrCmUrUrC) [ORN7010, 2′O-methyl-modified version of ORN7009]”, the “IFN-α secretion when co-delivered” value in series [1] was “robust IFN-a induction”. The “TNF-α secretion when co-delivered” value in series [4] is recorded as “little to no measurable TNF-α”. In addition, the “IFN-α secretion (TLR7 activity)” value in series [2] (setting [5]) is “reduced both TLR8 and TLR7 activation”. Further, the “TNF-α secretion (TLR8 activity)” value in series [3] (setting [5]) is “reduced both TLR8 and TLR7 activation”.

Take “C-G-G-fC-U-C-G-G-C-A-G-A-A-G-C-C-G-G-G-C-C (rCrGrGfCrUrCrGrGrCrArGrArArGrCrCrGrGrGrCrC; hairpin) [ORN7023F, 2′-fluoro-C-modified ORN7023]”: the “TLR7 selectivity (IFN-α versus TNF-α secretion)” value in series [1] (p-L-arginine delivery (FIG. 7)) is “maintained TLR7 selectivity”. For the same substance, in series [1], the “IFN-α secretion (TLR7 activity)” value is recorded as “further increasing the activity”.

As for “U*C*U*C*U*C*U*C*U*C*U*C*U*C*U*C*U*C*U*C (rU*rC*rU*rC*rU*rC*rU*rC*rU*rC*rU*rC*rU*rC*rU*rC*rU*rC*rU*rC) [ORN7008]”, in series [3] (setting [5]), the “TNF-α secretion (TLR8 activity)” value is recorded as “further increased TLR8 activation”.

For the substance “UCUCUCUCUCUCUCUCUCUC (UCUCUCUCUCUCUCUCUCUC; unmodified RNA) [ORN7005, derived from pU1C of Zhang et al., 2018, reference compound]”, the “IFN-α response to RNA ligand alone (no 2′3′ cGMP)” value in series [1] (p-L-arginine alone, ORN 0.6 μg/ml, one donor (FIGS. 12, 16A-16B)) was “unexpectedly high IFN-α response”. Further, the “IFN-α secretion (TLR7 activity)” value was “no or only minor IFN-α secretion” in series [1] and “activated TLR8 rather than TLR7” in series [2] (setting [5]). The “TNF-α secretion (TLR8 activity)” value in series [3] (setting [5]) is given as “activated TLR8”.

As for “U-fC-U-fC-U-fC-U-fC-U-fC-U-fC-U-fC-U-fC-U-fC-U-C (rUfCrUfCrUfCrUfCrUfCrUfCrUfCrUfCrUfCrUrC) [ORN7007, 2′-fluoro-modified version of ORN7005]”, the “IFN-α secretion when co-delivered” value in series [1] is on record as “robust IFN-a induction”. Besides, the “TNF-α secretion when co-delivered” value in series [4] is recorded as “little to no measurable TNF-α”. Further, in series [2] (setting [5]), the “IFN-α secretion (TLR7 activity)” value is reported as “also reduced activity”. Moreover, the “TNF-α secretion (TLR8 activity)” value in series [3] (setting [5]) is given as “also reduced activity”.
